Test system: Lone star tick larvae (Amblyomma americanum)
Experiment: Larval immersion microassay against larval-stage Lone star ticks
Conditions: Amblyomma americanum, 24 h, read-out: activity (percent larval mortality)
Protocol: The larval immersion microassay was conducted as described in detail in White, et al., J. Med. Entomol. […] Compounds of the invention were formulated in dimethylsulfoxide (DMSO) to prepare a stock solution at a concentration of at least 10 mM. […] Approximately 30-50 Lone star tick larvae (Amblyomma americanum) were submerged into each well containing compounds. After a 30 minute immersion period, larvae were removed with a wide-bore pipette tip in 0.05 ml of fluid, dispensed into a commercial paper tissue biopsy bag which was sealed at the top with a plastic dialysis clip, inverted and allowed to air dry for 60 minutes. Bags containing larvae were then incubated at approximately 27 degrees Celsius and >90% relative humidity. After 24 hours, bags were opened, live and dead larvae were counted and percent larval mortality was calculated.
7 contains one chiral center, and is therefore a racemic mixture comprised of approximately 50% R- and 50% S-enantiomer. In vitro and surrogate animal (rat) studies were conducted to evaluate the biological activity of the R- and S-enantiomers of 7. For the in vitro study, larvae of the Lone star tick (Amblyomma americanum) were exposed to 17 (S-enantiomer) and 18 (R-enantiomer) using the larval immersion microassay at a concentration of no greater than 0.3 mM. Following exposure, larvae were removed, transferred to a tissue biopsy bag and incubated at approximately 27 degrees Celsius and >90% relative humidity. After 24 hours, biopsy bags were opened and the numbers of live and dead larvae were determined.

SMILES | mortality at 300 µM [%]
CC1(C)OB(O)c2ccc(C3=NOC(c4cc(Cl)c(OC(F)(F)F)c(Cl)c4)(C(F)(F)F)C3)cc21 (stereo not shown) [Compound 12, 5-(5-(3,5-Dichloro-4-(trifluoromethoxy)phenyl)-5-(trifluoromethyl)-4,5-dihydro-isoxazol-3-yl)-3,3-dimethylbenzo[c][1,2]oxaborol-1(3H)-ol] | ≥ 80
CC1(C)OB(O)c2ccc(C3=NOC(c4cc(Cl)c(C(F)(F)F)c(Cl)c4)(C(F)(F)F)C3)cc21 (stereo not shown) [Compound 10, 5-(5-(3,5-Dichloro-4-(trifluoromethyl)phenyl)-5-(trifluoromethyl)-4,5-dihydroisoxazol-3-yl)-3,3-dimethyl-benzo[c][1,2]oxaborol-1(3H)-ol] | ≥ 80
CC1(C)OB(O)c2ccc(C3=NOC(c4cc(Cl)c(Br)c(Cl)c4)(C(F)(F)F)C3)cc21 (stereo not shown) [Compound 21, 5-(5-(4-Bromo-3,5-dichlorophenyl)-5-(trifluoromethyl)-4,5-dihydroisoxazol-3-yl)-3,3-dimethylbenzo[c][1,2]oxaborol-1(3H)-ol] | ≥ 80
CC1(C)OB(O)c2ccc(C3=NOC(c4cc(Cl)cc(C(F)(F)F)c4)(C(F)(F)F)C3)cc21 (stereo not shown) [Compound 6] | ≥ 80
CC1(C)OB(O)c2ccc(C3=NO[C@@](c4cc(Cl)c(F)c(Cl)c4)(C(F)(F)F)C3)cc21 [Compound 28, (S)-5-(5-(3,5-Dichloro-4-fluorophenyl)-5-(trifluoromethyl)-4,5-dihydroisoxazol-3-yl)-3,3-dimethylbenzo[c][1,2]oxaborol-1(3H)-ol] | ≥ 80
CC1(C)OB(O)c2ccc(C3=NOC(c4cc(Cl)c(F)c(Cl)c4F)(C(F)(F)F)C3)cc21 (stereo not shown) [Compound 35] | ≥ 80
CC1(C)OB(O)c2ccc(C3=NOC(c4cc(Cl)c(Cl)c(Cl)c4Cl)(C(F)(F)F)C3)cc21 (stereo not shown) [Compound 34, 3,3-Dimethyl-5-(5-(2,3,4,5-tetrachlorophenyl)-5-(trifluoromethyl)-4,5-dihydroisoxazol-3-yl)benzo[c][1,2]oxaborol-1(3H)-ol] | ≥ 80
CC1(C)OB(O)c2ccc(C3=NO[C@@](c4cc(Cl)cc(Cl)c4)(C(F)(F)F)C3)cc21 [Compound 3, (S)-5-(5-(3,5-dichlorophenyl)-5-(trifluoromethyl)-4,5-dihydroisoxazol-3-yl)-3,3-dimethyl benzo[c][1,2]oxaborol-1(3H)-ol] | ≥ 80
OB1OCc2cc(C3=NOC(c4cc(Cl)cc(Cl)c4)(C(F)(F)F)C3)ccc21 (stereo not shown) [Compound 1, 5-(5-(3,5-Dichlorophenyl)-5-(trifluoromethyl)-4,5-dihydroisoxazol-3-yl)benzo[c][1,2]oxaborol-1(3H)-ol] | ≥ 80
COc1c(Cl)cc(C2(C(F)(F)F)CC(c3ccc4c(c3)C(C)(C)OB4O)=NO2)cc1Cl (stereo not shown) [Compound 22, 5-(5-(3,5-Dichloro-4-methoxyphenyl)-5-(trifluoromethyl)-4,5-dihydroisoxazol-3-yl)-3,3-dimethylbenzo[c][1,2]oxaborol-1(3H)-ol] | ≥ 80
CC1(C)OB(O)c2ccc(C3=NOC(c4cc(C(F)(F)F)cc(C(F)(F)F)c4)(C(F)(F)F)C3)cc21 (stereo not shown) [Compound 14, 5-(5-(3,5-Bis(trifluoromethyl)phenyl)-5-(trifluoromethyl)-4,5-dihydroisoxazol-3-yl)-3,3-dimethylbenzo[c][1,2]oxaborol-1(3H)-ol] | ≥ 80
CC1(C)OB(O)c2cc(F)c(C3=NOC(c4cc(Cl)cc(Cl)c4)(C(F)(F)F)C3)cc21 (stereo not shown) [Compound 41] | ≥ 80
Cc1c(Cl)cc(C2(C(F)(F)F)CC(c3ccc4c(c3)C(C)(C)OB4O)=NO2)cc1Cl (stereo not shown) [Compound 9, 5-(5-(3,5-Dichloro-4-methylphenyl)-5-(trifluoromethyl)-4,5-dihydroisoxazol-3-yl)-3,3-dimethylbenzo[c][1,2]oxaborol-1(3H)-ol] | ≥ 80
CC1(C)OB(O)c2ccc(C3=NOC(c4cc(Cl)c(C(F)F)c(Cl)c4)(C(F)(F)F)C3)cc21 (stereo not shown) [Compound 11, 5-(5-(3,5-Dichloro-4-(difluoromethyl)phenyl)-5-(trifluoromethyl)-4,5-dihydroisoxazol-3-yl)-3,3-dimethyl-benzo[c][1,2]oxaborol-1(3H)-ol] | ≥ 80
CC1(C)OB(O)c2cc(F)c(C3=NOC(c4cc(Cl)c(Cl)c(Cl)c4)(C(F)(F)F)C3)cc21 (stereo not shown) [Compound 42, 6-Fluoro-3,3-dimethyl-5-(5-(3,4,5-trichlorophenyl)-5-(trifluoromethyl)-4,5-dihydroisoxazol-3-yl)benzo[c][1,2]oxaborol-1(3H)-ol] | ≥ 80
CC1(C)OB(O)c2ccc(C3=NOC(c4cc(Cl)cc(Cl)c4)(C(F)(F)F)C3)cc21 (stereo not shown) [Compound 2, 5-(5-(3,5-Dichlorophenyl)-5-(trifluoromethyl)-4,5-dihydroisoxazol-3-yl)-3,3-dimethyl-benzo[c][1,2]oxaborol-1(3H)-ol] | ≥ 80

Same assay, conditions: Amblyomma americanum; concentration of no greater than 0.3 mM; 30 minute immersion; counted after 24 hours; read-out: activity (percent larval mortality)

SMILES | mortality at 300 µM [%]
CC1(C)OB(O)c2ccc(C3=NOC(c4cc(F)c(Cl)c(Cl)c4)(C(F)(F)F)C3)cc21 (stereo not shown) [Compound 26, 5-(5-(3,4-Dichloro-5-fluorophenyl)-5-(trifluoromethyl)-4,5-dihydroisoxazol-3-yl)-3,3-dimethylbenzo[c][1,2]oxaborol-1(3H)-ol] | ≥ 80
CC1(C)OB(O)c2ccc(C3=NOC(c4cc(F)c(Cl)c(F)c4)(C(F)(F)F)C3)cc21 (stereo not shown) [Compound 30, 5-(5-(4-Chloro-3,5-difluorophenyl)-5-(trifluoromethyl)-4,5-dihydroisoxazol-3-yl)-3,3-dimethylbenzo[c][1,2]oxaborol-1(3H)-ol] | ≥ 80
CC1(C)OB(O)c2ccc(C3=NOC(c4cc(Br)c(F)c(Br)c4)(C(F)(F)F)C3)cc21 (stereo not shown) [Compound 32, 5-(5-(3,5-Dibromo-4-fluorophenyl)-5-(trifluoromethyl)-4,5-dihydroisoxazol-3-yl)-3,3-dimethylbenzo[c][1,2]oxaborol-1(3H)-ol] | ≥ 80
CC1(C)OB(O)c2ccc(C3=NOC(c4ccc(F)c(Cl)c4)(C(F)(F)F)C3)cc21 (stereo not shown) [Compound 19, 5-(5-(3-Chloro-4-fluorophenyl)-5-(trifluoromethyl)-4,5-dihydroisoxazol-3-yl)-3,3-dimethylbenzo[c][1,2]oxaborol-1(3H)-ol] | ≥ 80
CC1(C)OB(O)c2ccc(C3=NOC(c4cc(F)c(F)c(Cl)c4)(C(F)(F)F)C3)cc21 (stereo not shown) [Compound 25, 5-(5-(3-Chloro-4,5-difluorophenyl)-5-(trifluoromethyl)-4,5-dihydroisoxazol-3-yl)-3,3-dimethylbenzo[c][1,2]oxaborol-1(3H)-ol] | ≥ 80
CC1(C)OB(O)c2ccc(C3=NOC(c4ccc(Cl)c(Cl)c4)(C(F)(F)F)C3)cc21 (stereo not shown) [Compound 23, 5-(5-(3,4-Dichlorophenyl)-5-(trifluoromethyl)-4,5-dihydroisoxazol-3-yl)-3,3-dimethyl-benzo[c][1,2]oxaborol-1(3H)-ol] | ≥ 80
CC1(C)OB(O)c2ccc(C3=NOC(c4cc(Br)cc(Br)c4)(C(F)(F)F)C3)cc21 (stereo not shown) [Compound 5, 5-(5-(3,5-Dibromophenyl)-5-(trifluoromethyl)-4,5-dihydroisoxazol-3-yl)-3,3-dimethyl-benzo[c][1,2]oxaborol-1(3H)-ol] | ≥ 80
CC1(C)OB(O)c2ccc(C3=NOC(c4cc(Br)c(Cl)c(Br)c4)(C(F)(F)F)C3)cc21 (stereo not shown) [Compound 27, 5-(5-(3,5-Dibromo-4-chlorophenyl)-5-(trifluoromethyl)-4,5-dihydroisoxazol-3-yl)-3,3-dimethylbenzo[c][1,2]oxaborol-1(3H)-ol] | ≥ 80
CC1(C)OB(O)c2ccc(C3=NOC(c4ccc(F)c(C(F)(F)F)c4)(C(F)(F)F)C3)cc21 (stereo not shown) [Compound 24, 5-(5-(4-Fluoro-3-(trifluoromethyl)phenyl)-5-(trifluoromethyl)-4,5-dihydroisoxazol-3-yl)-3,3-dimethylbenzo[c][1,2]oxaborol-1(3H)-ol] | ≥ 80
